SMILES strings stand for the structures.

The target in the assay is T1, Full-length USP19 (Homo sapiens, UniProt O94966).
T1 construct: Full-length USP19 was purchased from Boston Biochem (E-576); purchased Boston Biochem E-576
T1 sequence (O94966 1-1318): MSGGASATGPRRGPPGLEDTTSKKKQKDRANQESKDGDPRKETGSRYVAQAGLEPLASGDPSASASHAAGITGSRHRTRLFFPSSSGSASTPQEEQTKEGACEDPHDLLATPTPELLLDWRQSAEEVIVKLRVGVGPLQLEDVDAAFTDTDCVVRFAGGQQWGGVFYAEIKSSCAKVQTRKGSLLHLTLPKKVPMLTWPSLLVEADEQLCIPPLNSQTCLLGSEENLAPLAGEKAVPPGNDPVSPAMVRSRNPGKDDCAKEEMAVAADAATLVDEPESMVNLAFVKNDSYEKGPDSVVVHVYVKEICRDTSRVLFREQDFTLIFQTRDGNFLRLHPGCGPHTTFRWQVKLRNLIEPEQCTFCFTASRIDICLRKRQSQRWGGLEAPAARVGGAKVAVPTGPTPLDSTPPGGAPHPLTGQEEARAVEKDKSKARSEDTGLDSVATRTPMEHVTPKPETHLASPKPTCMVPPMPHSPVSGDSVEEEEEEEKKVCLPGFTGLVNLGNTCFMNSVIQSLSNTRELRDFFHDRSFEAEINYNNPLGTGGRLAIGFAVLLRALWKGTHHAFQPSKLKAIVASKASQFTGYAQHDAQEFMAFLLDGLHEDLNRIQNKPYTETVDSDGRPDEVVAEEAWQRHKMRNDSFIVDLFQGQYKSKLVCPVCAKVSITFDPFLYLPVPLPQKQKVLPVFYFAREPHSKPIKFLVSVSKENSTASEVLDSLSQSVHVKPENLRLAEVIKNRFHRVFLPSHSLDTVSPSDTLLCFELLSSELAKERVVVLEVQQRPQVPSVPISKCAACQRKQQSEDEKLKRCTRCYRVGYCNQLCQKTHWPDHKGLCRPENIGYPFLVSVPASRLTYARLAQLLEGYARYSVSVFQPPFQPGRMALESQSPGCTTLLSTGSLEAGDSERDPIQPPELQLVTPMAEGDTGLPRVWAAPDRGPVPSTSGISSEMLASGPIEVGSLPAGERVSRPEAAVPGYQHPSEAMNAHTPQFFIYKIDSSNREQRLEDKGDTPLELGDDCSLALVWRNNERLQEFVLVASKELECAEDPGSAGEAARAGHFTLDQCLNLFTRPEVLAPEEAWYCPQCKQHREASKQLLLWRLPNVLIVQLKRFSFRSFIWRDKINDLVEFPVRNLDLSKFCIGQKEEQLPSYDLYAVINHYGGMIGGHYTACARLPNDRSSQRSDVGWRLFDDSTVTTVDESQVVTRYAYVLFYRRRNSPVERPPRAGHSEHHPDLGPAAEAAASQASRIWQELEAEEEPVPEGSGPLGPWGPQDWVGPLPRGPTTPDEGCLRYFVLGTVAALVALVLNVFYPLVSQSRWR
The experiment in a line: USP19 fluorescence polarisation (FP) homogeneous assay with Ubiquitin-Lys-TAMRA substrate. It counts as biochemical. As to conditions: 2.5 nM USP19, 30 min pre-incubation, average of at least two duplicate experiments. The essentials:
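Full-length USP19 preincubated 30 min at RT with inhibitor (200 μM to 2 μM series, 8–18 points) before adding 500 nM Ubiquitin-Lys-TAMRA substrate.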
Consider `C[C@H](CC(F)(F)F)C(=O)N1CCC(O)(Cn2ccc3nc(N4CCN(C)CC4)ncc3c2=O)C2(CCCC2)C1` (stereo partly drawn) [Example 61, 6-((10-Hydroxy-7-((R)-4,4,4-trifluoro-2-methylbutanoyl)-7-azaspiro[4.5]decan-10-yl)methyl)-2-(4-methylpiperazin-1-yl)pyrido[4,3-d]pyrimidin-5(6H)-one], for which the IC50 (in general, the midpoint of a concentration-inhibition curve) lay in the range of 0.5 to 5 µM.

Regarding `C[C@H](CC1CCCCC1)C(=O)N1CCC(O)(Cn2nc3ccccn3c2=O)C(C)(C)C1` (stereo partly drawn) [Example 51, 2-((1-((R)-3-Cyclohexyl-2-methylpropanoyl)-4-hydroxy-3,3-dimethylpiperidin-4-yl)methyl)-[1,2,4]triazolo[4,3-a]pyridin-3(2H)-one], the IC50 is 5 to 50 µM. As to `CC1(C)CN(C(=O)N2CCOC[C@H]2c2ccccc2)CC[C@@]1(O)Cn1ccc(-c2ccccc2)cc1=O` [Example 286], the IC50 was less than 0.5 µM. For the molecule `O=C(N1CC[C@@](O)(Cn2cnc(-c3ccccc3)cc2=O)C2(CCCC2)C1)N1CCOC[C@@H]1c1ccccc1` [Example 212, 3-(((S)-10-Hydroxy-7-((S)-3-phenylmorpholine-4-carbonyl)-7-azaspiro[4.5]decan-10-yl)methyl)-6-phenylpyrimidin-4(3H)-one], the IC50 was in the range of 50 to 250 µM. `O=C(N1CC[C@@](O)(Cn2ccc(-c3ccccc3F)cc2=O)C2(CCCC2)C1)N1CCNC[C@H]1c1cccc(F)c1` [Example 391, 4-(2-Fluorophenyl)-1-(((S)-7-((R)-2-(3-fluorophenyl)pipera-zine-1-carbonyl)-10-hydroxy-7-azaspiro[4.5]decan-10-yl)methyl)pyri-din-2(1H)-one]: the IC50 was less than 0.5 µM.

Turning to `O=C(NCc1ccc(F)cc1F)N1CC[C@@](O)(Cn2cnc(-c3ccccc3)cc2=O)C2(CCCC2)C1` [Example 303, (S)—N-(2,4-Difluorobenzyl)-10-hydroxy-10-((6-oxo-4-phenylpyrimidin-1(6H)-yl)methyl)-7-azaspiro[4.5]decane-7-carboxamide], the IC50 is less than 0.5 µM. For `O=C(N1CCC(O)(Cn2cnc(-c3ccccc3)cc2=O)C2(CCCC2)C1)N1CCC12CCOC2` (centres unmarked) [Example 236, 3-((10-Hydroxy-7-(6-oxa-1-azaspiro[3.4]octane-1-carbonyl)-7-azaspiro[4.5]decan-10-yl)methyl)-6-phenylpyrimidin-4(3H)-one], the IC50 was in the range of 5 to 50 µM.

In the case of `COc1ccc(-c2cc(=O)n(C[C@]3(O)CCN(C(=O)N4CCNC[C@H]4c4ccccc4)CC34CCCC4)cn2)s1` [Example 345, 3-(((S)-10-Hydroxy-7-((R)-2-phenylpiperazine-1-carbonyl)-7-azaspiro[4.5]decan-10-yl)methyl)-6-(5-methoxythiophen-2-yl)pyrimidin-4(3H)-one], the IC50 is less than 0.5 µM.

On to `C[C@H](CC1CCCCC1)C(=O)N1CCC(O)(CN2CC(Cc3ccccc3)CC2=O)C2(CCCC2)C1` (stereo partly drawn) [Example 41, 4-Benzyl-1-((7-((R)-3-cyclohexyl-2-methylpropanoyl)-10-hydroxy-7-azaspiro[4.5]decan-10-yl)methyl)pyrrolidin-2-one], for which the IC50 was in the range of 0.5 to 5 µM. Regarding `CC(CC1CCCCC1)C(=O)N1CCC(O)(CN2CC(Cc3ccccc3)CC2=O)CC1` (centres unmarked) [Example 43, 4-Benzyl-1-((1-(3-cyclohexyl-2-methylpropanoyl)-4-hydroxypiperidin-4-yl)methyl)pyrrolidin-2-one], the IC50 fell in the range of 5 to 50 µM.

With `CC(CC1CCCCC1)C(=O)N1CCC(O)(CN2CC3(CCCCC3)CC2=O)C(C)(C)C1` (centres unmarked) [Example 46, 2-((1-(3-Cyclohexyl-2-methylpropanoyl)-4-hydroxy-3,3-dimethylpiperidin-4-yl)methyl)-2-azaspiro[4.5]decan-3-one], the IC50 fell in the range of 50 to 250 µM. Turning to `CC(C)C1CNCCN1C(=O)N1CCC(O)(Cn2cnc(-c3ccccc3)cc2=O)C2(CCCC2)C1` (centres unmarked) [Example 208, 3-((10-Hydroxy-7-(2-isopropylpiperazine-1-carbonyl)-7-azaspiro[4.5]decan-10-yl)methyl)-6-phenylpyrimidin-4(3H)-one], the IC50 was in the range of 50 to 250 µM.

Consider `O=C(N1CC[C@@](O)(Cn2cnc(-c3ccccc3)cc2=O)C2(CCCC2)C1)N1CCOC[C@H]1c1ccccc1` [Example 211, 3-(((S)-10-Hydroxy-7-((R)-3-phenylmorpholine-4-carbonyl)-7-azaspiro[4.5]decan-10-yl)methyl)-6-phenylpyrimidin-4(3H)-one], for which the IC50 was less than 0.5 µM. The figure for `CN(C)C(=O)c1cn(CC2(O)CCN(C(=O)Oc3ccc([N+](=O)[O-])cc3)CC23CCCC3)c(=O)cc1-c1ccccc1` (centres unmarked) [Example 83, 4-Nitrophenyl 10-((5-(dimethylcarbamoyl)-2-oxo-4-phenylpyridin-1(2H)-yl)methyl)-10-hydroxy-7-azaspiro[4.5]decane-7-carboxylate] is 50 to 250 µM; for `C[C@H](CC1CCCCC1)C(=O)N1CCC(O)(CN2CCN(C(=O)OC(C)(C)C)CC2=O)C2(CCCC2)C1` (stereo partly drawn) [Example 38, tert-Butyl 4-((7-((R)-3-cyclohexyl-2-methylpropanoyl)-10-hydroxy-7-azaspiro[4.5]decan-10-yl)methyl)-3-oxopiperazine-1-carboxylate] it is less than 0.5 µM; for `C[C@@]1(c2ccccc2)CNCCN1C(=O)N1CC[C@@](O)(Cn2cnc(-c3ccccc3)cc2=O)C2(CCCC2)C1` [Example 390, 3-(((S)-10-Hydroxy-7-((R)-2-methyl-2-phenylpiperazine-1-carbonyl)-7-azaspiro[4.5]decan-10-yl)methyl)-6-phenylpyrimidin-4(3H)-one] it is less than 0.5 µM.

`COc1ccccc1C1CNCCN1C(=O)N1CCC(O)(Cn2cnc(-c3ccccc3)cc2=O)C2(CCCC2)C1` (centres unmarked) [Example 271, 3-((10-Hydroxy-7-(2-(2-methoxyphenyl)piperazine-1-carbonyl)-7-azaspiro[4.5]decan-10-yl)methyl)-6-phenylpyrimidin-4(3H)-one]: the IC50 was 50 to 250 µM. The figure for `COc1ccc(-c2cc(=O)n(C[C@]3(O)CCN(C(=O)N4CCNC[C@H]4c4ccccc4)CC34CCCC4)cn2)cc1` [Example 339, 3-(((S)-10-Hydroxy-7-((R)-2-phenylpiperazine-1-carbonyl)-7-azaspiro[4.5]decan-10-yl)methyl)-6-(4-methoxyphenyl) pyrimidin-4(3H)-one] is less than 0.5 µM; for `O=C(N1CCC(O)(Cn2cnc(-c3ccccc3)cc2=O)C2(CCCC2)C1)N1CCOCC1C(F)(F)F` (centres unmarked) [Example 263, 3-((10-Hydroxy-7-(3-(trifluoromethyl)morpholine-4-carbonyl)-7-azaspiro[4.5]decan-10-yl)methyl)-6-phenylpyrimidin-4(3H)-one] it is 5 to 50 µM; for `CC1(C)CN(C(=O)N2CCOC[C@H]2c2ccccc2)CC[C@@]1(O)Cn1cnc(-c2ccccc2)cc1=O` [Example 310, 3-(((S)-4-Hydroxy-3,3-dimethyl-1-((R)-3-phenylmorpholine-4-carbonyl)piperidin-4-yl)methyl)-6-phenylpyrimidin-4(3H)-one] it is less than 0.5 µM. The figure for `CSc1ncc2c(=O)n(CC3(O)CCN(C(=O)[C@H](C)CC(F)(F)F)CC34CCCC4)ccc2n1` (stereo partly drawn) [Example 56, 6-((10-Hydroxy-7-((R)-4,4,4-trifluoro-2-methylbutanoyl)-7-azaspiro[4.5]decan-10-yl)methyl)-2-(methylthio)pyrido[4,3-d]pyrimidin-5(6H)-one] is less than 0.5 µM. The figure for `O=C(N1CC[C@@](O)(Cn2cnc(-c3ccc(F)cc3)cc2=O)C2(CCCC2)C1)N1CCNC[C@H]1c1ccccc1` [Example 316, 6-(4-Fluorophenyl)-3-(((S)-10-hydroxy-7-((R)-2-phenylpiperazine-1-carbonyl)-7-azaspiro[4.5]decan-10-yl)methyl)pyrimidin-4(3H)-one] is less than 0.5 µM.

On to `CC1(C)CCCN1C(=O)N1CCC(O)(Cn2cnc(-c3ccccc3)cc2=O)C2(CCCC2)C1` (centres unmarked) [Example 240, 3-((7-(2,2-Dimethylpyrrolidine-1-carbonyl)-10-hydroxy-7-azaspiro[4.5]decan-10-yl)methyl)-6-phenylpyrimidin-4(3H)-one], for which the IC50 is 5 to 50 µM.

Values taken from US20220033397A1, “PHARMACEUTICAL COMPOUNDS AND THEIR USE AS INHIBITORS OF UBIQUITIN SPECIFIC PROTEASE 19 (USP19)” (ALMAC DISCOVERY LIMITED, priority 2018, published 2022).
